Reference: ChEMBL document CHEMBL1201862, “PubChem BioAssay data set” (2004)
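Following 48 hours of exposure in 96-well plates, responses at five concentrations were used to interpolate endpoints linearly. At the GI50, growth is halved.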 Active and inactive are the calls of the source. Rule as the data show it: active = GI50 up to about 1.1 µM and inactive = higher.

Legend:
Experiment in all cases: inhibition of tumour cell growth, NCI panel, 48 h
HT-29 = test system: HT-29
HOP-62 = test system: HOP-62
NCI-H522 = test system: NCI-H522
HCT-15 = test system: HCT-15
OVCAR-3 = test system: OVCAR-3
NCI-H23 = test system: NCI-H23
CCRF-CEM = test system: CCRF-CEM
EKVX = test system: EKVX
SNB-19 = test system: SNB-19
Malme-3M = test system: Malme-3M
A549 = test system: A549
SNB-75 = test system: SNB-75
HCC 2998 = test system: HCC 2998
UACC-257 = test system: UACC-257
SF-539 = test system: SF-539
SN12C = test system: SN12C
RPMI-8226 = test system: RPMI-8226
NCI-H460 = test system: NCI-H460

O=C(NCc1cccnc1)C1COc2cc(-c3cc(=O)c4ccccc4o3)ccc2O1 (stereo not drawn)
GI50 (HT-29): > 87.3 µM (inactive)
GI50 (HOP-62): 10.1 µM (inactive)
GI50 (NCI-H522): 10.7 µM (inactive)
GI50 (HCT-15): 77.3 µM
GI50 (OVCAR-3): > 100 µM (inactive)
GI50 (NCI-H23): 13.6 µM (inactive)
GI50 (CCRF-CEM): > 100 µM (inactive)
GI50 (EKVX): > 81.5 µM (inactive)
GI50 (SNB-19): 19.8 µM (inactive)
GI50 (Malme-3M): > 64.6 µM (inactive)
GI50 (A549): 5.79 µM (inactive)
GI50 (SNB-75): 3.49 µM (inactive)
GI50 (HCC 2998): > 100 µM (inactive)
GI50 (UACC-257): 4.94 µM (inactive)
GI50 (SF-539): 3.04 µM (inactive)
GI50 (SN12C): 4.34 µM (inactive)
GI50 (RPMI-8226): > 100 µM (inactive)
GI50 (NCI-H460): 51.4 µM (inactive)

COc1cccc(/C=C2\N=C(Cl)OC2=O)c1O
GI50 (HT-29): > 100 µM (inactive)
GI50 (HOP-62): > 100 µM (inactive)
GI50 (NCI-H522): > 100 µM (inactive)
GI50 (HCT-15): > 100 µM
GI50 (OVCAR-3): > 100 µM (inactive)
GI50 (NCI-H23): > 100 µM (inactive)
GI50 (CCRF-CEM): > 55.3 µM (inactive)
GI50 (EKVX): > 100 µM (inactive)
GI50 (SNB-19): > 100 µM (inactive)
GI50 (Malme-3M): > 100 µM (inactive)
GI50 (A549): > 100 µM (inactive)
GI50 (SNB-75): 30.5 µM (inactive)
GI50 (HCC 2998): > 100 µM (inactive)
GI50 (UACC-257): > 100 µM (inactive)
GI50 (SF-539): > 100 µM (inactive)
GI50 (SN12C): > 100 µM (inactive)
GI50 (RPMI-8226): > 73.5 µM (inactive)
GI50 (NCI-H460): > 100 µM (inactive)

COc1cc(C=O)c(-c2c(C=O)ccc3c2OCO3)c(OC)c1OC
GI50 (HT-29): 69.2 µM (inactive)
GI50 (HOP-62): > 100 µM (inactive)
GI50 (NCI-H522): 88.5 µM (inactive)
GI50 (HCT-15): 80.4 µM
GI50 (OVCAR-3): 72.6 µM (inactive)
GI50 (NCI-H23): > 100 µM (inactive)
GI50 (CCRF-CEM): 33.8 µM (inactive)
GI50 (EKVX): > 100 µM (inactive)
GI50 (SNB-19): 49.8 µM (inactive)
GI50 (Malme-3M): 67.3 µM (inactive)
GI50 (A549): > 100 µM (inactive)
GI50 (SNB-75): 55.2 µM (inactive)
GI50 (HCC 2998): > 100 µM (inactive)
GI50 (UACC-257): > 100 µM (inactive)
GI50 (SF-539): > 100 µM (inactive)
GI50 (SN12C): > 100 µM (inactive)
GI50 (RPMI-8226): 56.5 µM (inactive)
GI50 (NCI-H460): > 100 µM (inactive)

O=C(O/N=C1/CCCC/C1=C\c1ccccc1)c1ccc(Cl)c(Cl)c1
GI50 (HT-29): 22.4 µM (inactive)
GI50 (HOP-62): 52.5 µM (inactive)
GI50 (NCI-H522): 18.4 µM (inactive)
GI50 (HCT-15): 33.3 µM
GI50 (OVCAR-3): 21 µM (inactive)
GI50 (NCI-H23): 19.2 µM (inactive)
GI50 (CCRF-CEM): 21.8 µM (inactive)
GI50 (EKVX): 38.3 µM (inactive)
GI50 (SNB-19): 69.7 µM (inactive)
GI50 (Malme-3M): 0.443 µM (active)
GI50 (A549): 17.5 µM (inactive)
GI50 (SNB-75): 27.5 µM (inactive)
GI50 (HCC 2998): > 100 µM (inactive)
GI50 (UACC-257): > 100 µM (inactive)
GI50 (SF-539): 24.5 µM (inactive)
GI50 (SN12C): 49.8 µM (inactive)
GI50 (RPMI-8226): 36.2 µM (inactive)
GI50 (NCI-H460): 40.3 µM (inactive)

COc1ccc(/C=C/C(=O)c2sc(-n3nc(-c4ccccc4)cc3-c3ccccc3)nc2C)cc1
GI50 (HT-29): 30.5 µM (inactive)
GI50 (HOP-62): > 10 µM (inactive)
GI50 (NCI-H522): 63.1 µM (inactive)
GI50 (HCT-15): 75.2 µM
GI50 (OVCAR-3): 62.5 µM (inactive)
GI50 (NCI-H23): > 10 µM (inactive)
GI50 (CCRF-CEM): > 10 µM (inactive)
GI50 (EKVX): 6.25 µM (inactive)
GI50 (SNB-19): > 10 µM (inactive)
GI50 (Malme-3M): > 10 µM (inactive)
GI50 (A549): > 10 µM (inactive)
GI50 (SNB-75): 8.43 µM (inactive)
GI50 (HCC 2998): > 10 µM (inactive)
GI50 (UACC-257): 79.1 µM (inactive)
GI50 (SF-539): > 10 µM (inactive)
GI50 (SN12C): 75.9 µM (inactive)
GI50 (RPMI-8226): 39.7 µM (inactive)
GI50 (NCI-H460): > 10 µM (inactive)

Cc1cc(Cl)ccc1NC(=O)CC/C(CC(=O)C(C)C)=N\NC(=O)C[n+]1ccccc1
GI50 (HT-29): > 100 µM (inactive)
GI50 (HOP-62): > 100 µM (inactive)
GI50 (NCI-H522): > 100 µM (inactive)
GI50 (HCT-15): > 100 µM
GI50 (OVCAR-3): > 100 µM (inactive)
GI50 (NCI-H23): > 100 µM (inactive)
GI50 (CCRF-CEM): > 100 µM (inactive)
GI50 (EKVX): > 100 µM (inactive)
GI50 (SNB-19): > 100 µM (inactive)
GI50 (Malme-3M): > 100 µM (inactive)
GI50 (A549): > 100 µM (inactive)
GI50 (SNB-75): > 100 µM (inactive)
GI50 (HCC 2998): > 100 µM (inactive)
GI50 (UACC-257): > 100 µM (inactive)
GI50 (SF-539): > 100 µM (inactive)
GI50 (SN12C): > 100 µM (inactive)
GI50 (RPMI-8226): > 100 µM (inactive)
GI50 (NCI-H460): > 100 µM (inactive)

O=c1oc2ccccc2c(O)c1C(C/C(CCN1CCCC1)=N\Nc1ccccc1)c1ccccc1 (stereo not drawn)
GI50 (HT-29): 62.8 µM (inactive)
GI50 (HOP-62): 94.2 µM (inactive)
GI50 (NCI-H522): 51.2 µM (inactive)
GI50 (HCT-15): 52.2 µM
GI50 (OVCAR-3): 53.5 µM (inactive)
GI50 (NCI-H23): 57.3 µM (inactive)
GI50 (CCRF-CEM): 27.9 µM (inactive)
GI50 (EKVX): > 100 µM (inactive)
GI50 (SNB-19): 69.5 µM (inactive)
GI50 (Malme-3M): 78.5 µM (inactive)
GI50 (A549): > 100 µM (inactive)
GI50 (SNB-75): > 100 µM (inactive)
GI50 (HCC 2998): 23.6 µM (inactive)
GI50 (UACC-257): 77.8 µM (inactive)
GI50 (SF-539): 88.9 µM (inactive)
GI50 (SN12C): 74.6 µM (inactive)
GI50 (RPMI-8226): 27.1 µM (inactive)
GI50 (NCI-H460): 70.8 µM (inactive)

O=S(=O)(SCCCCSS(=O)(=O)c1ccc(Cl)cc1)c1ccc(Cl)cc1
GI50 (HT-29): 17.3 µM (inactive)
GI50 (HOP-62): 20.1 µM (inactive)
GI50 (NCI-H522): 5.06 µM (inactive)
GI50 (HCT-15): 13.4 µM
GI50 (OVCAR-3): 14.7 µM (inactive)
GI50 (NCI-H23): 10.3 µM (inactive)
GI50 (CCRF-CEM): 1.85 µM (inactive)
GI50 (EKVX): 4.67 µM (inactive)
GI50 (SNB-19): 10.2 µM (inactive)
GI50 (Malme-3M): 15.4 µM (inactive)
GI50 (A549): 13.5 µM (inactive)
GI50 (SNB-75): 11.4 µM (inactive)
GI50 (HCC 2998): 18.7 µM (inactive)
GI50 (UACC-257): 16.6 µM (inactive)
GI50 (SF-539): 12.4 µM (inactive)
GI50 (SN12C): 9.23 µM (inactive)
GI50 (RPMI-8226): 4.39 µM (inactive)
GI50 (NCI-H460): 14.4 µM (inactive)

OCC(O)CNc1ccnc2cc(Cl)ccc12 (stereo not drawn)
GI50 (HT-29): > 100 µM (inactive)
GI50 (HOP-62): > 100 µM (inactive)
GI50 (NCI-H522): > 100 µM (inactive)
GI50 (HCT-15): > 100 µM
GI50 (OVCAR-3): > 100 µM (inactive)
GI50 (NCI-H23): > 100 µM (inactive)
GI50 (CCRF-CEM): > 100 µM (inactive)
GI50 (EKVX): > 100 µM (inactive)
GI50 (SNB-19): > 100 µM (inactive)
GI50 (Malme-3M): > 100 µM (inactive)
GI50 (A549): > 100 µM (inactive)
GI50 (SNB-75): > 100 µM (inactive)
GI50 (HCC 2998): > 100 µM (inactive)
GI50 (UACC-257): > 100 µM (inactive)
GI50 (SF-539): > 100 µM (inactive)
GI50 (SN12C): > 100 µM (inactive)
GI50 (RPMI-8226): > 100 µM (inactive)
GI50 (NCI-H460): > 100 µM (inactive)

CN/C=C(/c1ccc(OC)cc1)C(O)c1ccc(OC)c(OC)c1 (stereo not drawn)
GI50 (HT-29): > 100 µM (inactive)
GI50 (HOP-62): > 100 µM (inactive)
GI50 (NCI-H522): > 100 µM (inactive)
GI50 (HCT-15): > 100 µM
GI50 (OVCAR-3): > 100 µM (inactive)
GI50 (NCI-H23): > 100 µM (inactive)
GI50 (CCRF-CEM): > 100 µM (inactive)
GI50 (EKVX): > 100 µM (inactive)
GI50 (SNB-19): > 100 µM (inactive)
GI50 (Malme-3M): > 100 µM (inactive)
GI50 (A549): > 100 µM (inactive)
GI50 (SNB-75): 69.8 µM (inactive)
GI50 (HCC 2998): > 100 µM (inactive)
GI50 (UACC-257): > 100 µM (inactive)
GI50 (SF-539): > 100 µM (inactive)
GI50 (SN12C): > 100 µM (inactive)
GI50 (RPMI-8226): > 100 µM (inactive)
GI50 (NCI-H460): > 100 µM (inactive)

CCN1CCC(O)(c2ccc(C)cc2)C(C(=O)c2ccc(C)cc2)C1 (stereo not drawn)
GI50 (HT-29): 19.8 µM (inactive)
GI50 (HOP-62): > 100 µM (inactive)
GI50 (NCI-H522): 1.94 µM (inactive)
GI50 (HCT-15): 19.6 µM
GI50 (OVCAR-3): 21.9 µM (inactive)
GI50 (NCI-H23): > 40 µM (inactive)
GI50 (CCRF-CEM): 18.3 µM (inactive)
GI50 (EKVX): 17.3 µM (inactive)
GI50 (SNB-19): > 80.7 µM (inactive)
GI50 (Malme-3M): 19.5 µM (inactive)
GI50 (A549): > 75.9 µM (inactive)
GI50 (SNB-75): 71.9 µM (inactive)
GI50 (HCC 2998): 52.4 µM (inactive)
GI50 (UACC-257): 19.1 µM (inactive)
GI50 (SF-539): > 43.5 µM (inactive)
GI50 (SN12C): 14.9 µM (inactive)
GI50 (RPMI-8226): 12.9 µM (inactive)
GI50 (NCI-H460): > 52.6 µM (inactive)
